Key:
MtmC [1] = target: T1, MtmC (Streptomyces argillaceus, UniProt Q194Q4); test: crystal structure, […] Å; assay type: binding; conditions: binary complex; central-domain site; crystals pH 5.5
T1 sequence (Q194Q4 1-420): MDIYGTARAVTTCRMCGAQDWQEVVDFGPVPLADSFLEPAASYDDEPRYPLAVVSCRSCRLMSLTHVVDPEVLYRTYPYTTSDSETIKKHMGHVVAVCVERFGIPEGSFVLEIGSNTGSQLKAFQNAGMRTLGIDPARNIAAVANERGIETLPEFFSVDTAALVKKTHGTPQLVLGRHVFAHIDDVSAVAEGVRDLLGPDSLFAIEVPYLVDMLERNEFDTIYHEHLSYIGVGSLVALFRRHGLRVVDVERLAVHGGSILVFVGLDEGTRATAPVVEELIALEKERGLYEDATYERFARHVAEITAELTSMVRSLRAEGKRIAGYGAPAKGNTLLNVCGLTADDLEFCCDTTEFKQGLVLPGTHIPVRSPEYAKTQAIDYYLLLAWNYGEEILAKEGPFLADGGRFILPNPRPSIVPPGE

MtmC [2] = target: T1, MtmC; test: crystal structure, […] Å; assay type: binding; conditions: binary complex; C-terminal domain site; crystals pH 5.5

SMILES	crystal structure, 2.2 Å (MtmC [1])	crystal structure, 2.7 Å (MtmC [2])
C[S+](CC[C@H](N)C(=O)O)C[C@H]1O[C@@H](n2cnc3c(N)ncnc32)[C@H](O)[C@@H]1O (some centres unmarked) [SAM]	4RVD (complex with SAM)	–
Cc1cn([C@H]2C[C@H](O)[C@@H](COP(=O)(O)OP(=O)(O)O)O2)c(=O)[nH]c1=O [TDP]	–	4RVF (complex with TDP)

Source: paper PMC4406830 (Biochemistry, 2015)
